In patent US20230233569A1 (Revolution Medicines, Inc., priority 2020, published 2023) one finds IC50 and EC50 data, which are given here for 1 compound.

The structures appear in SMILES notation. “And” between values parts separate entries of the source, which are not always exact repeats. Equal entries are not always repeated. Where two headings read alike, the source gives them in different places.

The test system of assay [1] is Capan-1 (K-Ras G12V). The experiment in a line: CellTiter-Glo cell viability assay, 5-day treatment. The class given is cell-based. As to conditions: Homo sapiens, CAPAN-1, 120 h, 5-day treatment; read-out: Capan-1 Cell Viability assay data (K-Ras G12V, IC50). An outline of the steps: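 Compounds were dispensed directly onto seeded cells and incubated for 5 days, then plates were equilibrated to room temperature for about 30 minutes before luminescence reading. Signals were expressed as percent of the mean DMSO control and fitted with a four-parameter logistic curve.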
Background: In ATP-based viability assays light output follows the ATP content of the culture.

The target of a further assay is KRAS Q61H (Homo sapiens, UniProt P01116+P62937, Q61H). The assay can be described thus: Disruption of BRAF RBD interaction with Ras (FRET / MOA assay, with Cyclophilin A). The class given is biochemical. The settings on record: KRAS Q61H; read-out: KRAS Q61H FRET data IC50. The procedure, abridged: (§1)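 IC50 reflects compound-driven Ras:Cyclophilin A ternary complex displacing BRAF RBD, read as lowered TR-FRET ratio relative to DMSO after Eu anti-His (10 nM) and APC anti-GST (50 nM) detection for 1.5 h. Prior incubation 3 h, 25° C, with 12.5 nM GMPPNP-loaded Ras, 50 nM BRAF RBD, 25 μM Cyclophilin A; top compound 30 μM.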

A further assay concerns the target NRAS Q61R (Homo sapiens, UniProt P01111+P62937, Q61R). The description is as above. It counts as biochemical. As to conditions: NRAS Q61R; read-out: NRAS Q61R FRET data IC50. An outline of the steps:
as §1

A further assay deals with NRAS WT (Homo sapiens, UniProt P01111+P62937). The assay is described as above. As to conditions: NRAS WT; read-out: NRAS WT FRET data IC50. The class given is biochemical. The procedure, abridged:
as §1

The target of the next assay is KRAS G12D (Homo sapiens, UniProt P01116+P62937, G12D). Described as above. The class given is biochemical. An outline of the steps:
(§2)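 Compound-driven ternary complex formation between nucleotide-loaded K-Ras and Cyclophilin A was measured as loss of BRAF RBD binding. Compounds (10-point 3-fold series, top 30 μM final) were incubated 3 h at 25 °C, then anti-His Eu-W1024 (10 nM) and anti-GST allophycocyanin (50 nM) added for 1.5 h. IC50 was taken from the TR-FRET ratio decrease versus DMSO.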

For the next assay, the target named is NRAS G12C (Homo sapiens, UniProt P01111+P62937, G12C). The description is as above. It counts as biochemical. As to conditions: NRAS G12C; read-out: NRAS G12C FRET data IC50.
Another assay deals with KRAS G12V (Homo sapiens, UniProt P01116+P62937, G12V). Described as above. The class given is biochemical. The procedure, abridged: as §2
The next assay has as its target KRAS WT (Homo sapiens, UniProt P01116+P62937). The description is as above. It counts as biochemical. The settings on record: KRAS WT; read-out: KRAS WT FRET data IC50. The procedure, abridged: as §2
For the next assay, the target named is KRAS G13D (Homo sapiens, UniProt P01116+P62937, G13D). The description is as above. As to conditions: read-out: FRET G13D IC50. The class given is biochemical. The procedure, abridged: as §2
The target in another assay is KRAS G13C (Homo sapiens, UniProt P01116+P62937, G13C). The description is as above. The class given is biochemical. An outline of the steps: as §2
For another assay, the target named is KRAS G12C (Homo sapiens, UniProt P01116+P62937, G12C). The description is as above. The class given is biochemical. An outline of the steps:
as §2

The next assay deals with KRAS G12S (Homo sapiens, UniProt P01116+P62937, G12S). Described as above. The class given is biochemical. As to conditions: read-out: KRAS G12S FRET data, IC50. The procedure, abridged: as §2
Assay [2] concerns Capan-1 (K-Ras G12V). The experiment in a line: Potency assay: pERK, other cell line. As to conditions: Homo sapiens. The class given is cell-based.
In another assay the test system is AsPC-1 (K-Ras G12D). The experiment in a line: Potency assay: pERK, other cell line. It counts as cell-based. As to conditions: Homo sapiens, ASPC1.

As usually defined, the IC50 is the concentration that inhibits the measured activity by half. The EC50 is the concentration that produces a half-maximal response.

Sequence of KRAS G12D (P01116 1-169 isoform P01116-2 G12D limits assumed): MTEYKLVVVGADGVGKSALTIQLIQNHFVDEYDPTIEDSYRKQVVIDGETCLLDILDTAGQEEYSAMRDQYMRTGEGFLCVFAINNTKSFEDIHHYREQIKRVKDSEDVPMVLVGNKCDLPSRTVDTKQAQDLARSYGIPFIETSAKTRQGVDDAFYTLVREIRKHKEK
Sequence of KRAS G12D (P62937 whole entry): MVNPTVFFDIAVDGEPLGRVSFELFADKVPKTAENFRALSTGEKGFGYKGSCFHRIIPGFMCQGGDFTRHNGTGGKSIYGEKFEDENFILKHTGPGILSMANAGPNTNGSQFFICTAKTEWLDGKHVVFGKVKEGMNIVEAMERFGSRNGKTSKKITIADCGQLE
Sequence of KRAS G12V (P01116 1-169 isoform P01116-2 G12V limits assumed): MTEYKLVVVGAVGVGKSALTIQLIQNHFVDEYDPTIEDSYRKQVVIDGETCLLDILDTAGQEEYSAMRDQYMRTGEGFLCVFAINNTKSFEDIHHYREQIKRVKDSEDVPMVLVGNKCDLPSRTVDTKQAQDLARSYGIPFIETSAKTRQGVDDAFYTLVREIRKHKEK
Sequence of KRAS G12V (P62937 whole entry): as the sequence (P62937 whole entry) above
Sequence of KRAS G12C (P01116 1-169 isoform P01116-2 G12C): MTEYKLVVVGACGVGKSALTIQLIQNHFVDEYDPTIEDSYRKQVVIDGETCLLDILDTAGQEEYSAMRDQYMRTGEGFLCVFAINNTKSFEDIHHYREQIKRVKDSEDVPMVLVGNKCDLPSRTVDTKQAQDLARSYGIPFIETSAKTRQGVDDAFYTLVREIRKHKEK
Sequence of KRAS G12C (P62937 whole entry): as the sequence (P62937 whole entry) above
Sequence of KRAS G13C (P01116 1-169 isoform P01116-2 G13C): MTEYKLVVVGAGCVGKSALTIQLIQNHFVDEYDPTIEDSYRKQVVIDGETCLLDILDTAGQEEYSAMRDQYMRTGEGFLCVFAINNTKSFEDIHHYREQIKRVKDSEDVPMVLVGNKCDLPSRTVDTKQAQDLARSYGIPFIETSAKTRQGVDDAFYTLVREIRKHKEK
Sequence of KRAS G13C (P62937 whole entry): as the sequence (P62937 whole entry) above
Sequence of NRAS G12C (P01111 whole entry G12C): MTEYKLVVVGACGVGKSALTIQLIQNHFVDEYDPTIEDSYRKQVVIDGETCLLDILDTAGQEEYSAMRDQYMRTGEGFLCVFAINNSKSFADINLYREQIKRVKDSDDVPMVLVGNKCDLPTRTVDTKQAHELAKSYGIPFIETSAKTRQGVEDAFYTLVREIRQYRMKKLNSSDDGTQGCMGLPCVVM
Sequence of NRAS G12C (P62937 whole entry): as the sequence (P62937 whole entry) above
Sequence of KRAS WT (P01116 1-169 isoform P01116-2 limits assumed): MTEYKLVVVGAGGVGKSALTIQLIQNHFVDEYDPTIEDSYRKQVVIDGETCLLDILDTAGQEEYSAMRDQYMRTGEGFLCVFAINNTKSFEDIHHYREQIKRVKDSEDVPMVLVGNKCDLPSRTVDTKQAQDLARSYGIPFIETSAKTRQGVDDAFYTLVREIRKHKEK
Sequence of KRAS WT (P62937 whole entry): as the sequence (P62937 whole entry) above
Sequence of KRAS G12S (P01116 1-169 isoform P01116-2 G12S limits assumed): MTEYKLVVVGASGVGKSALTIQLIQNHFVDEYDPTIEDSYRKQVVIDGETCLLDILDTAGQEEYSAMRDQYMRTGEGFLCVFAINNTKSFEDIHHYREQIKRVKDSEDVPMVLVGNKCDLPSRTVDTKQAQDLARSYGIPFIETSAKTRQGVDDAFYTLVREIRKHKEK
Sequence of KRAS G12S (P62937 whole entry): as the sequence (P62937 whole entry) above
Sequence of NRAS Q61R (P01111 whole entry Q61R): as the sequence (P01111 whole entry G12C) above, with C12G, Q61R counted along it
Sequence of NRAS Q61R (P62937 whole entry): as the sequence (P62937 whole entry) above
Sequence of KRAS Q61H (P01116 1-169 isoform P01116-2 Q61H limits assumed): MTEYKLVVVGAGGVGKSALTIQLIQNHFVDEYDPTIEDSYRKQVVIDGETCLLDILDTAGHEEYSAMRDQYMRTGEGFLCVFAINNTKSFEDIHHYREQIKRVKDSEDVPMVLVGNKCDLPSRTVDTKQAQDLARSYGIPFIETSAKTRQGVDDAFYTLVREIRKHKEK
Sequence of KRAS Q61H (P62937 whole entry): as the sequence (P62937 whole entry) above
Sequence of KRAS G13D (P01116 1-169 isoform P01116-2 G13D limits assumed): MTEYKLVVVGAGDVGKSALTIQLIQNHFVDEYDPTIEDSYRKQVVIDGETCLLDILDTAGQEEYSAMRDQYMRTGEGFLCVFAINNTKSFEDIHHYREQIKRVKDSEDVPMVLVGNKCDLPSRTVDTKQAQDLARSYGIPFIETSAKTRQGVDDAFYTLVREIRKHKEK
Sequence of KRAS G13D (P62937 whole entry): as the sequence (P62937 whole entry) above
Sequence of NRAS WT (P01111 whole entry): as the sequence (P01111 whole entry G12C) above, with C12G counted along it
Sequence of NRAS WT (P62937 whole entry): as the sequence (P62937 whole entry) above

As for `CCn1c(-c2cccnc2[C@H](C)OC)c2c3cc(ccc31)-c1cc(O)cc(c1)C[C@H](NC(=O)[C@H](C(C)C)N(C)C(=O)[C@H]1CCN(C(=O)OC)C1)C(=O)N1CCC[C@H](N1)C(=O)OCC(C)(C)C2` (atropisomer, axis not shown) [Example A3], the IC50 with Capan-1 (K-Ras G12V) [1] is 0.01 to 0.1 µM; on KRAS Q61H, 0.01 to 0.1 µM; on NRAS Q61R, 0.1 to 1 µM; at NRAS WT, 0.01 to 0.1 µM; on KRAS G12D (read-out: FRET G12D IC50), 0.545 µM; on KRAS G12D (read-out: KRAS G12D FRET data, IC50), 0.1 to 1 µM and > 10 µM. Further, the IC50 on NRAS G12C is 1 to 10 µM and 0.01 to 0.1 µM; on KRAS G12V (KRAS G12V, read-out: KRAS G12V FRET data IC50), 1 to 10 µM and 0.01 to 0.1 µM; at KRAS G12V (read-out: FRET G12V IC50) it was 0.043 µM; at KRAS WT, 1 to 10 µM and 0.01 to 0.1 µM; on KRAS G13D, 0.16 µM; at KRAS G13C (read-out: FRET G13C IC50) it was 0.099 µM. Besides, the IC50 on KRAS G13C (read-out: KRAS G13C FRET data, IC50) is 1 to 10 µM and 0.01 to 0.1 µM; at KRAS G12C (read-out: FRET G12C IC50) it was 0.029 µM; on KRAS G12C (read-out: KRAS G12C FRET data, IC50) it was 1 to 10 µM and 0.01 to 0.1 µM; at KRAS G12S, 1 to 10 µM and 0.01 to 0.1 µM. Also, the EC50 with Capan-1 (K-Ras G12V) [2] worked out at 0.008 µM; with AsPC-1 (K-Ras G12D) it was 0.144 µM.
